Reference: US8633325B2, “Method for making insect repellent composition” (E I du Pont de Nemours and Company, priority 2002, dated 2014)
“And” between values parts separate entries of the source, which are not always exact repeats. Equal entries are not always repeated.

Assays:
[1] = tested on: unfed adult female A. albimanus; test: in vitro membrane repellency test against anopheles mosquitoes; assay type: in vivo, Anopheles albimanus; settings: 1% (w/v); for Mean Number of Probes (SEM): 20 minute test; for Mean Number of Probes (SEM) / Mean percentage repellency as calculated from the ANOVA: five replicates; for Mean percentage repellency as calculated from the ANOVA: versus IPA control
Protocol: (§1) Approximately 250 female Aedes aegypti mosquitoes were introduced into a chamber containing 5 wells, each covered by a Baudruche (animal intestine) membrane. Wells were filled with bovine blood, containing sodium citrate (to prevent clotting) and ATP (72 mg ATP disodium salt per 26 ml of blood), and heated to 37° C. A volume of 25 μl of isopropyl alcohol, containing one of the test specimens shown in Table 2, was applied to each membrane.
(§2) After 5 min, 4 day-old female mosquitoes were added to the chamber. The number of mosquitoes probing the membranes for each treatment was recorded at 2 min intervals over 20 min. Each datum represents the mean of three replicate experiments.
(§3) Percentage repellency was calculated for each repellent treatment at each observation time using the following equation: %Repellency=100−[(T/C)×100] where: • T=the mean number of mosquitoes probing a treated well for that replicate at time tx • C=the mean number of mosquitoes probing the IPA control well at time tx The resulting percentages were then arcsine transformed and an ANOVA was conducted using the calculated repellency from all five replicates. Multiple comparisons of means were conducted using the Student-Newman-Keuls test. The mean arcsines from ANOVA were then converted back into percentages.
DHN derived from hydrogenation of trans,cis-nepetalactone (consisting principally of 1S,9S,5R,6R-5,9-dimethyl-3-oxabicyclo[4.3.0]nonan-2-one; Formula 4) designated “Experimental Sample #1”, and the mixture of dihydronepetalactones prepared according to Example 2 (designated as “Experimental Sample #2”; mDHN) were tested for repellency against one hundred unfed adult female A. albimanus, essentially as described in Example 3. The DHN used here differed from that prepared in Example 4 in that it was derived from hydrogenation (using a Pd/SrCO3 catalyst) of trans,cis-nepetalactone crystallized from commercial oil (Berjé, Bloomfield, N.J.). PMD was again included as a further control. The experimental design is summarized in Table 13, and all data presented is the average of five replicate experiments.

[2] = tested on: female Aedes aegypti mosquitoes; test: in vitro membrane repellency test, probing of blood-filled wells; assay type: in vivo; settings: for Mean percentage repellency as calculated from the ANOVA: versus IPA control
Protocol: as §1, §2
The dihydronepetalactone prepared in Example 4, Formula 4, was tested for repellency against Aedes aegypti mosquitoes essentially as described in Example 3. The experimental design is summarized in Table 6, and all data presented is from five replicate experiments.
as §3

[3] = tested on: deer tick Ixodes scapularis; test: tick repellency on forearms of human volunteers; assay type: in vivo; settings: for statistical comparison of protection times (ANOVA): 30% (w/v); for Mean complete protection time (SEM): 30% (w/v) in isopropanol, 25 μl topically on 4 cm circle
Protocol: A volume of 25 μl of each compound (30% (w/v) in isopropanol) was applied within 4 cm diameter circles drawn on the left forearms of six male human volunteers. Each volunteer had two repellents applied individually within two circles on this forearm; a single 4 cm diameter circle drawn on the other arm was left untreated to act as a control for tick attractiveness. Laboratory-reared unfed nymphs of the deer tick Ixodes scapularis were brought within 1 mm of the untreated circles on cotton buds (Q-tip®). If normal questing behavior was observed, and/or the insect crawled onto the untreated area, it was deemed qualified and then presented to a treated area. A qualified tick which quested at or crawled onto the treated area within 60 s was recorded as having not been repelled. […] Additionally, a qualified tick that crawled onto the treated area but fell off within an additional 60 s was recorded as repelled. Each volunteer had 5 qualified ticks offered to each treated circle at approximately hourly intervals. Exposures continued until 3 out of any group of 5 offered ticks were deemed ‘attracted’. The first non-repelled tick was defined as the first attracted tick which was followed by a second attracted tick within the same or following exposure period. The time of the first confirmed attracted tick was deemed to be the time at which complete repellency ‘broke down’ for that volunteer.

[4] = tested on: female Anopheles albimanus mosquitoes; test: mosquito repellency on forearms of human volunteers (test cage); assay type: in vivo; settings: for Mean complete protection time (h) (SEM): 1.0 ml on 250 cm^2 forearm
Protocol: The DHN derived from hydrogenation of trans,cis-nepetalactone (consisting principally of 1S,9S,5R,6R-5,9-dimethyl-3-oxabicyclo[4.3.0]nonan-2-one; Formula 4), prepared as in Example 7, and the mixture of dihydronepetalactones prepared according to Example 2, were tested for repellency against A. albimanus, with DEET included in the test as a positive control, using adult human volunteers. Test cages (2×2×2 feet) with two sleeved entry ports on each of two opposite sides were used, with a hand rest in the center. The sides and top were screened and the base was equipped with a mirror to facilitate observations. Two hundred adult female mosquitoes, which had never received a blood meal and which had been deprived of their normal diet of 10% sucrose 24 h prior to use, were released into the test cage. Each volunteer was pre-qualified as attractive through having 10 insects land on their untreated forearms within 30 s of insertion into the cage.
A volume of 1.0 ml of each compound (either 5% or 10% (w/v) in isopropanol) was applied to 250 cm^2 areas on the forearms of six male human volunteers, the remainder of the limbs having been made inaccessible to insects. Each volunteer had different repellents applied individually onto each forearm. After allowing the applied repellents to dry for 30 min, the forearms were placed into the test cage for 5 min periods at 30 min intervals, and the number of mosquitoes probing or biting during each exposure period recorded. Breakdown of repellency was recorded for each repellent on each volunteer. Breakdown was defined as the time at which the first confirmed bite occurred; the first confirmed bite was defined as a bite which was followed by a second bite either within the same or the next exposure period. The data is presented in Table 17 as mean complete protection time.

[5] = tested on: stable flies (Stomoxys calcitrans); test: in vitro membrane repellency test against stable flies; assay type: in vivo; settings: 1% (w/v); for Mean Number of Landings (SEM): 20 minute test; for Mean Number of Landings (SEM) / Mean percentage repellency as calculated from the ANOVA: five replicates; for Mean percentage repellency as calculated from the ANOVA: versus IPA control
Protocol: as §1, §2, §3
DHN derived from hydrogenation of trans,cis-nepetalactone (consisting principally of 1S,9S,5R,6R-5,9-dimethyl-3-20 oxabicyclo[4.3.0]nonan-2-one; Formula 4), designated “Experimental Sample #1”, and the mixture of dihydronepetalactones prepared according to Example 2 (designated Experimental Sample #2; mDHN), were tested for repellency against Stomoxys calcitrans, essentially as described in Example 3. The DHN used here differed from that prepared in Example 4 in that it was derived from hydrogenation (using a Pd/SrCO3 catalyst) of trans,cis-nepetalactone crystallized from commercial oil (Berjé, NJ). In these experiments, an additional positive control compound was included, namely p-menthane-3,8-diol (PMD), obtained from Takasago International Corp. (USA), Rockleigh, N.J. The experimental design is summarized in Table 10, and all data presented is an average of five replicate experiments.

[6] = tested on: Monomorium destructor ants; settings: after 25 seconds of exposure to vapors; cited from earlier work
[7] = 1% (w/v), 20 minute observation period, Example 5, five replicates
[8] = 1% (w/v), Example 5, five replicates

SMILES	repellency comparison between treatments (ANOVA) [1]	Mean Number of Probes (SEM) [1]	Mean percentage repellency as calculated from the ANOVA [1] [%]	Mean Number of Probes (SEM) [2, 7]	time until mosquito probing initiated (probing density over time, FIG. 9) ([2]; 1% (w/v), Example 5) [min]	Mean Time (min) (SEM) to "First probe" [2, 8]	Mean percentage repellency as calculated from the ANOVA [2, 8] [%]	statistical comparison of protection times (ANOVA) [3]	Mean complete protection time (SEM) [3]	Mean complete protection time (h) (SEM) ([4]; 5% (w/v) in isopropanol)	Mean complete protection time (h) (SEM) ([4]; 10% (w/v) in isopropanol)	repellency comparison between treatments (ANOVA) [5]	Mean Number of Landings (SEM) [5]	Mean percentage repellency as calculated from the ANOVA [5] [%]	other results
CCN(CC)C(=O)c1cccc(C)c1 [DEET, N,N-diethyl-m-toluamide]	statistically equal in efficacy	50.4 (13.01)	13.3	4.8 (3.2)	6	14.8 min and 14.8 (3.2) min	92.4	statistically indistinguishable in the longevity of their repellency	124 min and 124.0 (69.95) min	4.0 (0.5) h	6.2 (0.63) h	performed statistically equally well	17.8 (4.96)	55.5	Mean Time (min) (SEM) to "First probe" ([2]; 1% (w/v) in isopropyl alcohol, 25 μl on membrane, Example 3, three replicates): 12 min and 12.0 (0.0) min; Mean Number of Probes (SEM) ([2]; 1% (w/v), over 20 min, Example 3, three replicates): 4.55 and 4.55 (0.29)
C[C@H]1COC(=O)[C@@H]2[C@@H]1CC[C@@H]2C [DHN, (1S,9S,5R,6R)-5,9-dimethyl-3-oxabicyclo[4.3.0]nonan-2-one]	statistically equal to DEET	38.0 (9.71)	32.9	4.0 (2.16)	10	16.0 (2.09) min	96.1	statistically indistinguishable in the longevity of their repellency	109 min and 109.0 (58.64) min	1.8 (0.12) h	3.5 h and 3.5 (0.29) h	performed statistically equally well	21.2 (3.35)	43.2	Mean Number of Probes (SEM) ([2]; 0.2% (w/v), 20 minute observation period, Example 5, five replicates): 23.2 (5.97); Mean Time (min) (SEM) to "First probe" ([2]; 0.2% (w/v), Example 5, five replicates): 8.4 (1.16) min; Mean Time (min) (SEM) to "First probe" ([2]; 0.2% (w/v), Example 5, five replicates, listed as dihydronepetalactone): 8.4 min; Mean Number of Probes (SEM) ([2]; 0.5% (w/v), 20 minute observation period, Example 5, five replicates): 16.2 (5.49); Mean Time (min) (SEM) to "First probe" ([2]; 0.5% (w/v), Example 5, five replicates): 9.6 (2.48) min; Mean Time (min) (SEM) to "First probe" ([2]; 0.5% (w/v), Example 5, five replicates, listed as dihydronepetalactone): 9.6 min; Mean percentage repellency as calculated from the ANOVA ([2]; 0.5% (w/v), Example 5): 66.7%; repellency rank and statistical comparison with 1% DEET ([2]; 1% (w/v), Example 5, ANOVA, Student-Newman-Keuls): ranked first in repellency, and was statistically indistinguishable from 1% DEET; Mean Time (min) (SEM) to "First probe" ([2]; 1% (w/v), Example 5, five replicates, listed as Dihydronepetalactone): approximately 16 min; statistical comparison of protection times (ANOVA) ([4]; 5% and 10% (w/v)): provided lesser protection times
CC1CCC(C(C)(C)O)C(O)C1 (centres unmarked) [PMD, p-menthane-3,8-diol]	statistically equal in efficacy	47.2 (8.57)	11.5										33.6 (9.21)	4.7	time after which compound became ineffective in repelling landings [5]: 6 min
CC1COC(=O)C2C(C)CCC12 (centres unmarked) [pure dihydronepetalactone, dihydronepetalactone]															ants that ceased to feed [6]: 50-60%
